According to US8853258B2, “C-linked hydroxamic acid derivatives useful as antibacterial agents” (Pfizer Inc., priority 2009, dated 2014):
Values after ≈ are worked out from the molar mass of the structure shown.

Assays:
Format in all cases: cell-based
[1] = test system: Klebsiella pneumoniae: Ciprofloxacin-resistant isolate, ESBL, clinical isolate (KP-3700); assay: MIC determination (CLSI), KP-3700
Description: (§1) The in vitro antibacterial activity of compounds described in the Examples was evaluated by minimum inhibitory concentration (MIC) testing according to Clinical and Laboratory Standards Institute (CLSI, formerly NCCLS) guidelines. See: Clinical and Laboratory Standards Institute. Methods for Dilution Antimicrobial Susceptibility Tests for Bacteria that Grow Aerobically; Approved Standard-Seventh Edition. CLSI document M7-A7 [ISBN 1-56238-587-9]. Clinical and Laboratory Standards Institute, 940 West Valley Road, Suite 1400, Wayne, Pa. 19087-1898 USA, 2006; also Clinical and Laboratory Standards Institute. Performance Standards for Antimicrobial Susceptibility Testing; Eighteenth Informational Supplement. CLSI document M100-S18 [ISBN1-56238-653-0]. Clinical and Laboratory Standards Institute.
(§2) The following bacterial strains were used in these MIC determinations:
4) Klebsiella pneumoniae: Ciprofloxacin-resistant isolate, expresses extended-spectrum beta-lactamases (ESBL), clinical isolate, labeled as KP-3700 in Tables 1, 2, and 3.

[2] = test system: Pseudomonas aeruginosa UI-18: Wild-type (PA-7); assay: MIC determination (CLSI), PA-7; conditions: for PA-7 MIC: Pseudomonas aeruginosa UI-18 wild-type PA-7; for MIC: Pseudomonas aeruginosa, Table 1, read-out: PA-7 (MIC)
Description: as §1, §2
1) Pseudomonas aeruginosa UI-18: Wild-type, labeled as PA-7 in Tables 1, 2 and 3;

[3] = test system: Acinetobacter baumanii/haemolyticus: Multidrug-resistant clinical isolate (AB-3167); assay: MIC determination (CLSI), AB-3167; conditions: for AB-3167 MIC: Acinetobacter baumanii/haemolyticus multidrug-resistant clinical isolate AB-3167; for MIC: Acinetobacter baumannii, Table 1, read-out: AB-3167 (MIC)
Description: as §1, §2
2) Acinetobacter baumanii/haemolyticus: Multidrug-resistant clinical isolate labeled as AB-3167 in Tables 1, 2 and 3;

[4] = test system: Escherichia coli EC-1: VOGEL, mouse virulent; assay: MIC determination (CLSI), EC-1; conditions: for EC-1 MIC: Escherichia coli EC-1 VOGEL, mouse virulent; for MIC: Escherichia coli, read-out: EC-1: (MIC)
Description: as §1, §2
3) Escherichia coli EC-1: VOGEL, mouse virulent labeled as EC-1 in Tables 1, 2 and 3;

Row | SMILES | KP-3700 MIC [1] | PA-7 MIC [2] [µg/mL] | AB-3167 MIC [3] | EC-1 MIC [4] | MIC [2] [µg/mL] | MIC [3] [µg/mL] | MIC [4] [µg/mL]
1 | COC(C)c1ccc(-c2ccc(CCC(C)(C(=O)NO)S(C)(=O)=O)cc2)cc1 (mixture of isomers) [Example 71] | 16 µg/mL | 4 | 32 µg/mL | 4 µg/mL |  |  | 
2 | CC(CCc1ccc(OC2CCCC2)cc1)(C(=O)NO)S(C)(=O)=O (racemic) [Example 15, (+/−)-4-[4-(Cyclopentyloxy)phenyl]-N-hydroxy-2-methyl-2-(methylsulfonyl)butanamide] | ≧64 mg/L |  |  |  | 4 (≈ 11.3 µM) | 32 (≈ 90 µM) | 16 (≈ 45 µM)
3 | CC(CCc1ccc(OCCC2CC2)cc1)(C(=O)NO)S(C)(=O)=O (racemic) [Example 17, (+/−)-4-[4-(2-Cyclopropylethoxy)phenyl]-N-hydroxy-2-methyl-2-(methylsulfonyl)butanamide] | ≧64 mg/L |  |  |  | 8 (≈ 22.5 µM) | 32 (≈ 90 µM) | 32 (≈ 90 µM)
4 | CC(CCc1ccc(-n2cc3ccccc3n2)cc1)(C(=O)NO)S(C)(=O)=O (racemic) [Example 22, (+/−)-N-hydroxy-4-[4-(2H-indazol-2-yl)phenyl]-2-methyl-2-(methylsulfonyl)butanamide] | 8 µg/mL |  |  |  | 4 (≈ 10.3 µM) | ≥ 64 | 4 (≈ 10.3 µM)
5 | CC(C)Oc1ccc(-c2ccc(CCC(C)(C(=O)NO)S(C)(=O)=O)cc2)cc1 (racemic) [Example 49] | 4 µg/mL | 4 | 8 µg/mL | 2 µg/mL |  |  | 
6 | Cc1cc(C)cc(-c2ccc(CCC(C)(C(=O)NO)S(C)(=O)=O)cc2)c1 (racemic) [Example 52] | 4 µg/mL | 2 | 8 µg/mL | 2 µg/mL |  |  | 
7 | CC(CCc1ccc(-c2ccc(F)cc2F)cc1)(C(=O)NO)S(C)(=O)=O (racemic) [Example 53] | 4 µg/mL | 0.5 | 8 µg/mL | 1 µg/mL |  |  | 
8 | CC(CCc1ccc(-c2c(F)cccc2F)cc1)(C(=O)NO)S(C)(=O)=O (racemic) [Example 54] | 16 µg/mL | 1 | 16 µg/mL | 4 µg/mL |  |  | 
9 | COc1ccc(-c2ccc(CCC(C)(C(=O)NO)S(C)(=O)=O)cc2)cc1 (racemic) [Example 55] | 2 µg/mL | 0.5 | 16 µg/mL | 0.5 µg/mL |  |  | 
10 | Cc1ccccc1-c1ccc(CCC(C)(C(=O)NO)S(C)(=O)=O)cc1 (racemic) [Example 58] | 32 µg/mL | 4 | 32 µg/mL | 8 µg/mL |  |  | 
11 | COc1ccc(-c2ccc(CCC(C)(C(=O)NO)S(C)(=O)=O)cc2)c(C)c1 (racemic) [Example 60] | 16 µg/mL | 4 | ≧64 mg/L | 4 µg/mL |  |  | 
12 | CC(CCc1ccc(-c2cccnc2)cc1)(C(=O)NO)S(C)(=O)=O (racemic) [Example 61] | ≧64 mg/L | 16 | ≧64 mg/L | ≧64 mg/L |  |  | 
13 | COc1ccc(-c2ccc(CCC(C)(C(=O)NO)S(C)(=O)=O)cc2)c(OC)c1 (racemic) [Example 65] | 2 µg/mL | 2 | 32 µg/mL | 1 µg/mL |  |  | 
14 | COc1ccc(-c2ccc(CCC(C)(C(=O)NO)S(C)(=O)=O)cc2)cc1F (racemic) [Example 66] | 8 µg/mL | 1 | 16 µg/mL | 1 µg/mL |  |  | 
15 | COc1ccc(-c2ccc(CCC(C)(C(=O)NO)S(C)(=O)=O)cc2)cc1C (racemic) [Example 67] | 8 µg/mL | 16 | ≧64 mg/L | 4 µg/mL |  |  | 
16 | CNS(=O)(=O)c1ccc(-c2ccc(CCC(C)(C(=O)NO)S(C)(=O)=O)cc2)cc1 (racemic) [Example 68] | 32 µg/mL | 4 | ≧64 mg/L | 32 µg/mL |  |  | 
17 | CCc1ccccc1-c1ccc(CCC(C)(C(=O)NO)S(C)(=O)=O)cc1 (racemic) [Example 69] | ≧64 mg/L | 16 | ≧64 mg/L | 16 µg/mL |  |  | 
18 | CC(CCc1ccc(-c2ccc(Cl)cc2Cl)cc1)(C(=O)NO)S(C)(=O)=O (racemic) [Example 70] | 2 µg/mL | 1 | 32 µg/mL | 1 µg/mL |  |  | 
19 | COc1ccc(-c2ccc(CCC(C)(C(=O)NO)S(C)(=O)=O)cc2)cn1 (racemic) [Example 72] | 32 µg/mL | 4 | ≧64 mg/L | 8 µg/mL |  |  | 
20 | Cc1ccc(C)c(-c2ccc(CCC(C)(C(=O)NO)S(C)(=O)=O)cc2)c1 (racemic) [Example 73] | ≧64 mg/L | 32 | 4 µg/mL | 16 µg/mL |  |  | 
21 | CC(CCc1ccc(-c2ccc3c(c2)CCO3)cc1)(C(=O)NO)S(C)(=O)=O (racemic) [Example 74] | 4 µg/mL | 1 | 16 µg/mL | 1 µg/mL |  |  | 
22 | CC(CCc1ccc(-c2ccc(F)c(F)c2)cc1)(C(=O)NO)S(C)(=O)=O (racemic) [Example 75] | 4 µg/mL | 0.5 | 8 µg/mL | 1 µg/mL |  |  | 
23 | COc1ncccc1-c1ccc(CCC(C)(C(=O)NO)S(C)(=O)=O)cc1 (racemic) [Example 76] | ≧64 mg/L | 16 | ≧64 mg/L | 32 µg/mL |  |  | 
24 | CC(CCc1ccc(-c2ccc(S(C)(=O)=O)cc2)cc1)(C(=O)NO)S(C)(=O)=O (racemic) [Example 79] | ≧64 mg/L | 4 | ≧64 mg/L | 32 µg/mL |  |  | 
25 | CC(CCc1ccc(-c2cncnc2)cc1)(C(=O)NO)S(C)(=O)=O (racemic) [Example 80] | 32 µg/mL | 8 | ≧64 mg/L | 8 µg/mL |  |  | 
26 | CC(CCc1ccc(-c2ccc(C#N)s2)cc1)(C(=O)NO)S(C)(=O)=O (racemic) [Example 82] | 2 µg/mL | 0.5 | 8 µg/mL | 0.5 µg/mL |  |  | 
27 | CC(CCc1ccc(-c2cccc(CO)c2)cc1)(C(=O)NO)S(C)(=O)=O (racemic) [Example 84] | ≧64 mg/L | 16 | ≧64 mg/L | ≧64 mg/L |  |  | 
28 | CNC(=O)c1ccc(-c2ccc(CCC(C)(C(=O)NO)S(C)(=O)=O)cc2)cc1 (racemic) [Example 85] | ≧64 mg/L | 16 | ≧64 mg/L | 32 µg/mL |  |  | 
29 | COc1ccc(-c2ccc(CCC(C)(C(=O)NO)S(C)(=O)=O)cc2)c(C)n1 (racemic) [Example 86] | 32 µg/mL | 4 | ≧64 mg/L | 8 µg/mL |  |  | 
